Common to all, as to format: cell-based, human
The test system of test [1] is HCT 116 p53+/+. Put plainly: Monolayer antiproliferative MTS assay. The conditions noted are these: 2D monolayer; for IC50: MTS, 72-h incubation. The text has this: (§1) The human colon carcinoma cell line HCT 116 with wild-type p53 (p53^+/+) and the human glioblastoma cell line U-251 were obtained from ATCC, while the HCT 116 with a p53 deletion (p53^−/−) was kindly provided by Prof. M. Rusin from the Maria Sklodowska-Curie Memorial Cancer Center and Institute of Oncology in Gliwice, Poland. The human chronic myelogenous leukaemia cell line K562 and the normal human cell dermal fibroblast cell line NHDF were purchased from Sigma-Aldrich and PromoCell, respectively. Both the HCT 116 and U-251 cell lines were cultured in Dulbecco’s modified Eagle’s medium (DMEM) supplemented with 10% inactivated foetal bovine serum (FBS). The DMEM for the NHDF contained 15% non-inactivated FBS. K562 cells were cultured in RPMI medium completed by 10% inactivated FBS. Additionally, the media were supplemented with antibiotics (streptomycin and penicillin – 1% v/v; Sigma-Aldrich). The cell culture was conducted in 75 cm^2 flasks (Nunc) under standard conditions (37 °C, 5% CO2 humidified atmosphere). Furthermore, the cell lines were frequently tested for mycoplasma using the qRT-PCR technique with specific Mycoplasma primers to confirm the lack of contamination.
(§2) The cells were seeded in 96-well plates (Nunc) with 5,000 or 4,000 cells per well for the cancer cells and NHDF, respectively, and incubated under standard conditions at 37 °C overnight. The culture media were then changed for freshly prepared solutions of the tested compounds in various concentrations. After 72-h incubation the antiproliferative assay was carried out as follows: the solutions of the compounds were changed in each well to 100 µL DMEM without phenol red and 20 µL of CellTiter 96 AQueous One Solution-MTS (Promega). The plates were incubated for 1 h at 37 °C, and the absorbance was then measured at 490 nm using a multi-plate reader (Synergy 4, BioTek). The experiment for each sample was repeated at least three times.
(§3) Additionally, the compounds were also tested for their cytotoxicity against normal cells – human dermal fibroblasts (NHDF).
(Tetrazolium assays rely on reduction of a dye to a coloured formazan, in cell work by metabolically active cells.)

The subject of test [2] is HCT 116 p53-/-. The test can be described thus: Monolayer antiproliferative MTS assay. The conditions noted are these: 2D monolayer; for IC50: MTS, 72-h incubation.
Source text: as §1, §2, §3

Test [3] has as its system HCT 116 p53+/+. The test can be described thus: Apoptosis induction assay (Annexin V/7-AAD). The conditions noted are these: 0.5 µM, 48 h; control nearly 6%. On the procedure:
(§4) The cells were seeded in 35 mm Petri dishes (200,000 per dish) and incubated at 37 °C overnight. The following day, the medium was changed for a freshly prepared 0.5 µM solution of 13. Analysis was carried out after 48 h using an FITC Annexin V Apoptosis Detection KIT with 7-AAD (Bio-Legend) according to the manufacturer’s protocol. In brief, both adherent and detached cells were collected, washed two times with cold PBS, and centrifuged at 300 g (5 min). Next, the cells were resuspended in 100 µL Annexin V Binding Buffer, 5 µL of FITC Annexin V, and 5 µL 7-AAD Viability Staining Solution. The samples were incubated in the dark for 15 min at room temperature. The percentage of live and apoptotic (sum of early and late apoptotic) cells was estimated using a Muse™ Cell Analyzer. The experiments were carried out three times.
(§5) Because derivative 13 affected the cell cycle progression, we decided to determine the type of induced cell death by focusing on the apoptosis pathway. The analysis was performed by measuring the green fluorescence of the annexin V – FITC dye conjugate using capillary flow cytometry. Positive staining is observed when the annexin V binds to the disintegrated membrane of apoptotic cells. […]

The test system of test [4] is HCT 116 p53-/-. Put plainly: Apoptosis induction assay (Annexin V/7-AAD). Conditions: 0.5 µM, 48 h; control nearly 6%. As to the method:
as §4, §5

In general, IC50 refers to the concentration that inhibits the measured activity by half. `O=[N+]([O-])c1ccc(/C=C/c2ccnc3ccccc23)o1` [Compound 13]: the IC50 in test [1] is 69 ± 9 nM; in test [1] (Homo sapiens, HCT-116, 72 h), below 100 nM; in test [2], 94 ± 10 nM; in test [2] (Homo sapiens, HCT-116, 72 h), below 100 nM. For the same molecule, in test [1] (relative to NHDF), the “SI (selectivity index) HCT 116 p53+/+” value came out at 9.41. For the same molecule, in test [2] (relative to NHDF), the “SI (selectivity index) HCT 116 p53-/-” value is 6.90. The “percentage of apoptotic cells” value in test [3] is on record as 40%; in test [4], 30%.

(Values after publication PMC11574108, “4-Furanylvinylquinoline derivative as a new scaffold for the design of oxidative stress initiator and glucose transporter inhibitor drugs” (Scientific Reports, 2024).)
